Data on 2 substances can be found in patent US9745348B2 (The University of Manchester, priority 2011, dated 2017).

Where no end group is shown, it is not given here. The star is where a group is joined. FITC = O=C1OC2(c3ccc(O)cc3Oc3cc(O)ccc32)c2ccc(NC(=S)*)cc21; Ahx = NCCCCCC(=O)O

In data set [1] the test system is E. coli DH5α and B. subtilis 168. The data set is classed as cell-based, Escherichia coli; Bacillus subtilis. The following applies: 1 h. The procedure:
To determine antibacterial activity of peptides, survival rate curves were constructed. Bacteria (E. coli DH5α or B. subtilis 168) were incubated with peptide at varying peptide concentrations at 37° C. for 1 h. Aliquots of 2 μL were withdrawn, diluted and spread on agar plates. After overnight incubation at 37° C., the surviving bacteria were expressed as the percentage of total cells, and survival curves drawn (FIG. 4). Controls were bacteria without peptide. The minimal inhibitory concentrations (MICs) of each peptide were measured by standard microdilution method. The test was done in sterile 96-well plates in a final volume of 200 μL. Aliquots (100 μL) of a bacterial suspension at 1×10^5 (colony-forming units (CFU)/ml) in culture medium were added to […] peptide solution (2-fold serial dilutions in 10 mM PBS buffer). […] The MIC was defined as the lowest concentration of peptide for which there was no visible growth. Each determination was performed at least three times.

Data set [2] is described as follows: MTT viability of fibroblasts over three days. The data set is classed as cell-based, human. The following applies: human, adult fibroblasts (HDFa cells). The procedure: MTT assay: Cell viability and proliferation is widely assessed by the MTT assay as already described previously.
The fibroblasts cells, Neonatal (HDFn) and Adult (HDFa), were both grown until greater than 80% confluent. […] After 24 hour incubation the culture medium was replaced with fresh medium containing an appropriate amount of the peptide for investigation.
The viability of the fibroblasts, Adult (HDFa) and Neonatal (HDFn) cells in the presence of surfactants was tested by MTT assay over three days relative to control wells containing cells only.

In data set [3] the test system is HeLa and HL60 cancer cell lines. As to conditions: 24 h.
Procedure: Antitumor activities of peptides were measured using the 3-(4,5-dimethylthiazol-2-yl)-2,-diphenyl tetrazolium bromide (MTT) assay, and the IC50 value was calculated as the concentration of peptide that induced 50% growth inhibition compared to the untreated control.
HeLa and HL60 cells were seeded in 96-well plates (10^5 cells/well) in a complete medium [Iscove's modified dulbecco's medium (IMDM)] with 10% fetal bovine serum (FBS) for 24 h before peptide treatment. […] Following incubation with peptides, 20 μL of a 5 mg/ml solution MTT reagent was added to each well and incubated for 4 h at 37° C. After removing the supernatant, 150 μL of dimethyl sulfoxide (DMSO) was added to dissolve the formazan crystals that remained in the wells. The absorbance was determined using a microplate ELISA Reader at 570 nm. Wells without cells for blanking the spectrophotometer and the cells without peptides were taken as negative controls.
Data set [4] has as its system cytokine genes IL2 and IL8 of human lymphocytes. As to conditions: 10 μM, 1 h.
Procedure: RT-PCR (Reverse Transcription Polymerase Chain Reaction and Real Time Polymerase Chain Reaction): To determine the related gene transcriptional activities about HeLa cell apoptosis and the lymphocyte immunological effects, RT-PCR assays were performed. […] Total RNA from the cells was extracted by Trizol following the manufacturer's instructions (Invitrogen, Britain). Total RNA (1 μg) was subject to cDNA synthesis with random primers (PrimeScript Reverse Transcriptase, Takara, Japan). Real-Time PCR was performed with power SYBR green PCR Master Mix kit (Applied Biosystems, American) using a 7500 real-time PCR system (Applied Biosystems, American) according to the protocol of the manufacturer, and the data were analyzed by relative quantitation of the 2^−ΔΔCt method. Transcriptional levels of related genes were normalized to the values of the house keeping gene β-actin.
For data set [5], the system named is NIH 3T3 cells co-cultured with B. subtilis 168 or HL60 cancer cells. The experiment in a line: Co-culture selectivity, distribution of FITC-labeled peptide by fluorescence microscopy. As to conditions: 20 μM, 1 hour incubation. The data set is classed as cell-based. The procedure:
To further verify the selective cytotoxicity of G(IIKK)3I-NH2 (SEQ ID NO: 3) in vitro, we added the FITC-labeled G(IIKK)3I-NH2 (SEQ ID NO: 3) to the two co-culture systems containing mammalian cell line NIH 3T3 (model host) and bacteria B. subtilis 168 or cancer cell line (HL 60). Specifically, NIH 3T3 cells were cultured at 37° C. with 5% CO2 in IMDM supplemented with 10% FBS. After reaching an over 80% confluence, the cells were transferred into a 6-well plate containing sterile coverslips at bottom to a final concentration of 1×10^5 cells/well. After overnight culture at 37° C., the medium was replaced with 1 ml B. subtilis 168 suspended in PBS with a density of 1×10^6 CFU/ml or 1 ml HL 60 cells suspended in PBS with a density of 1×10^5 cells/ml. Meanwhile, FITC-labeled G(IIKK)3I-NH2 (SEQ ID NO: 3) dissolved in the same buffer was also added to each well to the final concentration of 20 μM. […]
To further confirm the selective responses and cytotoxicity of the peptides, FITC-labeled G(IIKK)3I-NH2 (SEQ ID NO: 3) was synthesized according to the method described previously by Jullian M, et al (Julian et al 2009). […] After incubation for 1 hour, the distribution of FITC-G(IIKK)3I-NH2 (SEQ ID NO: 3) was observed using fluorescence microscopy and the results are shown in FIG. 12. […]

For the substance “GIIKKIIKKIIKKI-NH2 [Helix G3, G(IIKK)3 I-NH2]”, the “MICs (minimum inhibitory concentrations)” value in data set [1] was in the range of 0.5 to 8 µM. In data set [2], the viability (usually the share of living cells, or the viability signal relative to a control) at 24 h, 5 µM is 91%; the viability at 24 h, 25 µM was 88%; the viability at 24 h, 50 µM was 87%; the viability at 24 h, 100 µM came to 78%. Also, in data set [2], the viability at 48 h, 5 µM was 92%; the viability at 48 h, 25 µM came to 85%; the viability at 48 h, 50 µM is 84%; the viability at 48 h, 100 µM was 75%. Moreover, in data set [2], the viability at 72 h, 5 µM came to 81%; the viability at 72 h, 25 µM came to 80%; the viability at 72 h, 50 µM is 75%; the viability at 72 h, 100 µM worked out at 71%. In addition, the IC50 (as a rule, the midpoint of a concentration-inhibition curve) in data set [3] was 4 to 25 µM. Also, the “relative transcriptional levels of IL2 and IL8 of lymphocytes” value in data set [4] is reported as “lower or almost equal to that of control cells”.
Take “FITC-G(IIKK)3I-NH2: N-terminal FITC-labeled G(IIKK)3I-NH2 with 6-aminohexanoic acid (Ahx) between the last amino acid and the thiourea linkage ({FITC-Ahx}-GIIKKIIKKIIKKI-NH2; SMILES CC[C@H](C)[C@H](NC(=O)[C@H](CCCCN)NC(=O)[C@H](CCCCN)NC(=O)[C@@H](NC(=O)[C@@H](NC(=O)[C@H](CCCCN)NC(=O)[C@H](CCCCN)NC(=O)[C@@H](NC(=O)[C@@H](NC(=O)[C@H](CCCCN)NC(=O)[C@H](CCCCN)NC(=O)[C@@H](NC(=O)[C@@H](NC(=O)CNC(=O)CCCCCNC(=S)Nc1ccc2c(c1)C(=O)OC21c2ccc(O)cc2Oc2cc(O)ccc21)[C@@H](C)CC)[C@@H](C)CC)[C@@H](C)CC)[C@@H](C)CC)[C@@H](C)CC)[C@@H](C)CC)C(N)=O)”: in data set [5], the “distribution of green fluorescence of FITC-labeled peptide in co-culture” value is recorded as “concentrated in the bacterial clusters or the HL60 cells but not in any part of the 3T3 cells”.
